Test results: patent US11717508B2, “Compounds, compositions, and methods for inhibiting bacterial growth” (priority 2016, dated 2023)
Where two headings read alike, the source gives them in different places.

Tested on: DosRST regulon
Assay type: cell-based
Settings: for WT DMSO/WT HC102A Fold change / log2 Fold change: upregulated
[1] = Rv2626c, WT Mtb treated with HC102A compared to DMSO
[2] = Rv2627c, WT Mtb treated with HC102A compared to DMSO
[3] = Rv2628, WT Mtb treated with HC102A compared to DMSO
[4] = Rv2629, WT Mtb treated with HC102A compared to DMSO
[5] = Rv2630, WT Mtb treated with HC102A compared to DMSO
[6] = Rv2631, WT Mtb treated with HC102A compared to DMSO
[7] = Rv3083, WT Mtb treated with HC102A compared to DMSO
[8] = Rv3084 lipR, WT Mtb treated with HC102A compared to DMSO
[9] = Rv3085, WT Mtb treated with HC102A compared to DMSO
[10] = Rv3127, WT Mtb treated with HC102A compared to DMSO
[11] = Rv3130c, WT Mtb treated with HC102A compared to DMSO
[12] = Rv3131, WT Mtb treated with HC102A compared to DMSO
[13] = Rv3132c, WT Mtb treated with HC102A compared to DMSO
[14] = Rv3133c, WT Mtb treated with HC102A compared to DMSO
[15] = Rv3134c, WT Mtb treated with HC102A compared to DMSO
[16] = Rv3839, WT Mtb treated with HC102A compared to DMSO
[17] = WT Mtb treated with HC102A compared to DMSO
[18] = WT Mtb treated with HC102A, replicate 1
[19] = WT Mtb treated with HC102A, replicate 2

C[C@@H]1CC(C)(C)C[C@]2(C1)NC(=O)NC2=O (racemic) [HC102A, 7,7,9-trimethyl-1,3-diazaspiro[4.5]decane-2,4-dione]
log2 Fold change, gene MT2700 (Rv2625c, WT Mtb treated with HC102A compared to DMSO): −5.149 | Counts per million (CPM) WT_HC102A1, gene MT2700 (Rv2625c, WT Mtb treated with HC102A, replicate 1): 146.1 CPM | Counts per million (CPM) WT_HC102A2, gene MT2700 (Rv2625c, WT Mtb treated with HC102A, replicate 2): 111.9 CPM | Fold change, gene MT2701 [1]: 0.04398 | log2 Fold change, gene MT2701 [1]: −4.507 | Counts per million (CPM) WT_HC102A1, gene MT2701 (Rv2626c, WT Mtb treated with HC102A, replicate 1): 447.5 CPM | Counts per million (CPM) WT_HC102A2, gene MT2701 (Rv2626c, WT Mtb treated with HC102A, replicate 2): 554.5 CPM | Fold change, gene MT2702 [2]: 0.01981 | log2 Fold change, gene MT2702 [2]: −5.658 | Counts per million (CPM) WT_HC102A1, gene MT2702 (Rv2627c, WT Mtb treated with HC102A, replicate 1): 101.3 CPM | Counts per million (CPM) WT_HC102A2, gene MT2702 (Rv2627c, WT Mtb treated with HC102A, replicate 2): 156.7 CPM | Fold change, gene MT2703 [3]: 0.03499 | log2 Fold change, gene MT2703 [3]: −4.837 | Counts per million (CPM) WT_HC102A1, gene MT2703 (Rv2628, WT Mtb treated with HC102A, replicate 1): 20.64 CPM | Counts per million (CPM) WT_HC102A2, gene MT2703 (Rv2628, WT Mtb treated with HC102A, replicate 2): 33.42 CPM | Fold change, gene MT2704 [4]: 0.09873 | log2 Fold change, gene MT2704 [4]: −3.34 | Counts per million (CPM) WT_HC102A1, gene MT2704 (Rv2629, WT Mtb treated with HC102A, replicate 1): 540.6 CPM | Counts per million (CPM) WT_HC102A2, gene MT2704 (Rv2629, WT Mtb treated with HC102A, replicate 2): 660.1 CPM | Fold change, gene MT2705 [5]: 0.0994 | log2 Fold change, gene MT2705 [5]: −3.331 | Counts per million (CPM) WT_HC102A1, gene MT2705 (Rv2630, WT Mtb treated with HC102A, replicate 1): 71.28 CPM | Counts per million (CPM) WT_HC102A2, gene MT2705 (Rv2630, WT Mtb treated with HC102A, replicate 2): 56.05 CPM | Fold change, gene MT2707 [6]: 0.1179 | log2 Fold change, gene MT2707 [6]: −3.085 | Counts per million (CPM) WT_HC102A1, gene MT2707 (Rv2631, WT Mtb treated with HC102A, replicate 1): 110.9 CPM | Counts per million (CPM) WT_HC102A2, gene MT2707 (Rv2631, WT Mtb treated with HC102A, replicate 2): 72.59 CPM | Fold change, gene MT3168 [7]: 0.2851 | log2 Fold change, gene MT3168 [7]: −1.81 | Counts per million (CPM) WT_HC102A1, gene MT3168 (Rv3083, WT Mtb treated with HC102A, replicate 1): 100.3 CPM | Counts per million (CPM) WT_HC102A2, gene MT3168 (Rv3083, WT Mtb treated with HC102A, replicate 2): 66.84 CPM | Fold change, gene MT3169 [8]: 0.2724 | log2 Fold change, gene MT3169 [8]: −1.876 | Counts per million (CPM) WT_HC102A1, gene MT3169 (Rv3084 lipR, WT Mtb treated with HC102A, replicate 1): 16.74 CPM | Counts per million (CPM) WT_HC102A2, gene MT3169 (Rv3084 lipR, WT Mtb treated with HC102A, replicate 2): 9.205 CPM | Fold change, gene MT3170 [9]: 0.3224 | log2 Fold change, gene MT3170 [9]: −1.633 | Counts per million (CPM) WT_HC102A1, gene MT3170 (Rv3085, WT Mtb treated with HC102A, replicate 1): 11.79 CPM | Counts per million (CPM) WT_HC102A2, gene MT3170 (Rv3085, WT Mtb treated with HC102A, replicate 2): 8.619 CPM | Fold change, gene MT3212 [10]: 0.0633 | log2 Fold change, gene MT3212 [10]: −3.982 | Counts per million (CPM) WT_HC102A1, gene MT3212 (Rv3127, WT Mtb treated with HC102A, replicate 1): 690.1 CPM | Counts per million (CPM) WT_HC102A2, gene MT3212 (Rv3127, WT Mtb treated with HC102A, replicate 2): 898.2 CPM | Fold change, gene MT3216 [11]: 0.05498 | log2 Fold change, gene MT3216 [11]: −4.185 | Counts per million (CPM) WT_HC102A1, gene MT3216 (Rv3130c, WT Mtb treated with HC102A, replicate 1): 1,395.93 CPM | Counts per million (CPM) WT_HC102A2, gene MT3216 (Rv3130c, WT Mtb treated with HC102A, replicate 2): 1,787.99 CPM | Fold change, gene MT3217 [12]: 0.03013 | log2 Fold change, gene MT3217 [12]: −5.053 | Counts per million (CPM) WT_HC102A1, gene MT3217 (Rv3131, WT Mtb treated with HC102A, replicate 1): 415.6 CPM | Counts per million (CPM) WT_HC102A2, gene MT3217 (Rv3131, WT Mtb treated with HC102A, replicate 2): 421.7 CPM | Fold change, gene MT3218 [13]: 0.0994 | log2 Fold change, gene MT3218 [13]: −3.331 | Counts per million (CPM) WT_HC102A1, gene MT3218 (Rv3132c, WT Mtb treated with HC102A, replicate 1): 439 CPM | Counts per million (CPM) WT_HC102A2, gene MT3218 (Rv3132c, WT Mtb treated with HC102A, replicate 2): 364.8 CPM | Fold change, gene MT3219 [14]: 0.07283 | log2 Fold change, gene MT3219 [14]: −3.779 | Counts per million (CPM) WT_HC102A1, gene MT3219 (Rv3133c, WT Mtb treated with HC102A, replicate 1): 233.8 CPM | Counts per million (CPM) WT_HC102A2, gene MT3219 (Rv3133c, WT Mtb treated with HC102A, replicate 2): 174 CPM | Fold change, gene MT3220 [15]: 0.04505 | log2 Fold change, gene MT3220 [15]: −4.472 | Counts per million (CPM) WT_HC102A1, gene MT3220 (Rv3134c, WT Mtb treated with HC102A, replicate 1): 264.6 CPM | Counts per million (CPM) WT_HC102A2, gene MT3220 (Rv3134c, WT Mtb treated with HC102A, replicate 2): 171.8 CPM | Fold change, gene MT3947 [16]: 0.2314 | log2 Fold change, gene MT3947 [16]: −2.111 | Counts per million (CPM) WT_HC102A1, gene MT3947 (Rv3839, WT Mtb treated with HC102A, replicate 1): 25.93 CPM | Counts per million (CPM) WT_HC102A2, gene MT3947 (Rv3839, WT Mtb treated with HC102A, replicate 2): 7.681 CPM | Fold change, gene MT0598 [17]: 0.2421 | Fold change, gene MT0600 [17]: 0.1586 | Fold change, gene MT1096 [17]: 0.3436 | Fold change, gene MT1385 [17]: 0.3712 | Fold change, gene MT1775 [17]: 0.2046 | Fold change, gene MT1777 [17]: 0.1265 | Fold change, gene MT2088 [17]: 0.0678 | Fold change, gene MT2090 [17]: 0.1133 | Fold change, gene MT3209 [17]: 0.4 | Fold change, gene MT3210 [17]: 0.04949 | log2 Fold change, gene MT0598 [17]: −2.046 | log2 Fold change, gene MT0600 [17]: −2.656 | log2 Fold change, gene MT1096 [17]: −1.541 | log2 Fold change, gene MT1385 [17]: −1.43 | log2 Fold change, gene MT1775 [17]: −2.289 | log2 Fold change, gene MT1777 [17]: −2.983 | log2 Fold change, gene MT2088 [17]: −3.883 | log2 Fold change, gene MT2090 [17]: −3.141 | log2 Fold change, gene MT3209 [17]: −1.322 | log2 Fold change, gene MT3210 [17]: −4.337 | Counts per million (CPM) WT_HC102A1, gene MT0598 [18]: 57.71 CPM | Counts per million (CPM) WT_HC102A1, gene MT0600 [18]: 129.6 CPM | Counts per million (CPM) WT_HC102A1, gene MT1096 [18]: 9.103 CPM | Counts per million (CPM) WT_HC102A1, gene MT1385 [18]: 56.65 CPM | Counts per million (CPM) WT_HC102A1, gene MT1775 [18]: 172.1 CPM | Counts per million (CPM) WT_HC102A1, gene MT1777 [18]: 11.46 CPM | Counts per million (CPM) WT_HC102A1, gene MT2088 [18]: 254.1 CPM | Counts per million (CPM) WT_HC102A1, gene MT2090 [18]: 3,874.46 CPM | Counts per million (CPM) WT_HC102A1, gene MT3209 [18]: 5.689 CPM | Counts per million (CPM) WT_HC102A1, gene MT3210 [18]: 0.5689 CPM | Counts per million (CPM) WT_HC102A2, gene MT0598 [19]: 66.55 CPM | Counts per million (CPM) WT_HC102A2, gene MT0600 [19]: 211.3 CPM | Counts per million (CPM) WT_HC102A2, gene MT1096 [19]: 3.811 CPM | Counts per million (CPM) WT_HC102A2, gene MT1385 [19]: 35.06 CPM | Counts per million (CPM) WT_HC102A2, gene MT1775 [19]: 61.8 CPM | Counts per million (CPM) WT_HC102A2, gene MT1777 [19]: 24.1 CPM | Counts per million (CPM) WT_HC102A2, gene MT2088 [19]: 225.6 CPM | Counts per million (CPM) WT_HC102A2, gene MT2090 [19]: 5,782.55 CPM | Counts per million (CPM) WT_HC102A2, gene MT3209 [19]: 5.394 CPM | Counts per million (CPM) WT_HC102A2, gene MT3210 [19]: 0.1173 CPM | Counts per million (CPM) WT_HC102A1 (gene MT3514 (Rv3406), replicate 1): 494.4 CPM | Counts per million (CPM) WT_HC102A2 (gene MT3514 (Rv3406), replicate 2): 168 CPM | WT DMSO/WT HC102A Fold change (gene MT3514 (Rv3406)): 6.242 | log2 Fold change (gene MT3514 (Rv3406)): 2.642 | Counts per million (CPM) WT_HC102A1 (gene MT3515 (Rv3407), replicate 1): 191.1 CPM | Counts per million (CPM) WT_HC102A2 (gene MT3515 (Rv3407), replicate 2): 103.1 CPM | WT DMSO/WT HC102A Fold change (gene MT3515 (Rv3407)): 2.831 | log2 Fold change (gene MT3515 (Rv3407)): 1.501
